Test results taken from patent US7893263B2, “Structural analogs of corosolic acid having anti-diabetic and anti-inflammatory properties” (Laila Nutraceuticals, priority 2004, dated 2011).

How the values were obtained:
[1] = tested on: 5-Lipoxygenase; assay: 5-Lipoxygenase inhibitory activity, colorimetric method (ferric xylenol orange, linoleic acid); format: biochemical
Experimental: 5-Lipoxygenase activity: The corosolic acid analogs were screened for their 5-Lipoxygenase inhibitory potential using colorimetric method. The assay mixture contained 50 mM phosphate buffer pH 6.3, 5-Lipoxygenase, various concentrations of test substances in dimethyl sulphoxide and linoleic acid in a total volume of 0.5 mL, after 5 min incubation of above reaction mixture, 0.5 mL ferric xylenol orange reagent was added and OD was measured after two minutes at 585 nm using spectrophotometer. Controls were run along with test in a similar manner except using vehicle instead of test substance solution. Percent inhibition was calculated by comparing absorbance of test solution with that of control.
The corosolic acid analogs of this invention are found to show good 5-lipoxygenase activity (Table 2; 5-lipoxygenase activity is expressed in % of inhibition at 100 μM and 250 μM; higher the % inhibitory values, higher is the activity).

[2] = in vivo; conditions: Artemia salina (brine shrimp), pH 8.5; 24 h at 37° C., 10 nauplii per vial
Experimental: (§1) Brine shrimp lethality: Brine shrimp (Artemia salina) nauplii were hatched using brine shrimp eggs in a conical shaped vessel (1 L), filled with sterile artificial sea water (prepared using sea salt 38 g/L and adjusted to pH 8.5 using 1 N NaOH) under constant aeration for 48 h. After hatching, 10 nauplii were drawn through a pepette and placed in each vial containing 4.5 mL brine solution and added various concentrations of drug solutions and volume was made upto 5 mL using brine solution and maintained at 37° C. for 24 h under the light of incandescent lamps and surviving larvae were counted. Each experiment was conducted along with control (vehicle treated), at various concentrations of the test substance in each set that contains 6 tubes and the average results are reported. The percentage lethality was determined by comparing the mean mortal larvae of test and control tubes. LC50 values were obtained from the plot of concentration (μg) vs. percentage lethality. Podophyllotoxin was used as a positive control.
(§2) The corosolic acid analogs of this invention are found to show significant brine shrimp lethality (Table 3; brine shrimp lethality is expressed in LC50 at μM concentration; lower the LC50 value, higher is the activity).

[3] = tested on: Albino wistar rats; assay: Hypoglycemic activity: inhibition of sucrose-induced raise in serum glucose levels (SGL); format: in vivo; parameters: Inhibitory rate (serum glucose level inhibitory rate): unit not given here; conditions: oral dose 1 mg/Kg; for SGL (mean ± SE): 20 mL/kg of 20% sucrose orally after 30 minutes, blood drawn one hour after treatment, groups of six rats; for Inhibitory rate (serum glucose level inhibitory rate): mean increase in serum glucose levels of treated vs control groups
Experimental: Hypoglycemic activity: Hypoglycemic activity was tested by the inhibition of sucrose-induced raise in serum glucose levels (SGL), by the test substances in Albino wistar rats. The procedure involves fasting the rats for overnight at ad libitum water, numbered weighed and randomly divided into groups of six animals each. Prior to treatment blood samples were drawn from sinus orbital plexus of all animals using heparin coated glass capillaries under mild ether anesthesia. The blood samples were tested for serum glucose levels using enzymatic GOD/POD method. […] SGL=(test OD/Standard OD)×100 and the results were expressed in mg/dL. All the groups were treated orally with corresponding test substances, standard, vehicle (5% gum acacia). After 30 minutes, all animals were given 20 mL/kg of 20% sucrose solution orally using gastric tube. One hour after treatment, blood samples were drawn again under mild ether anesthesia and tested for serum glucose levels in a same procedure as described above for initial serum glucose estimation. The data was subjected to statistical treatment using t-test and inhibitory rate was calculated by comparing mean increase in serum glucose levels of control and treated groups. The corosolic acid analogs of this invention are found to show better hypoglycemic activity (Table 1; hypoglycemic activity is expressed in serum glucose level inhibitory rate values; higher the inhibitory rate value, higher is the activity) than the corosolic acid.

[4] = tested on: Brine shrimp (Artemia salina) nauplii; assay: in vivo; conditions: 24 h at 37° C., 10 nauplii per vial
Experimental: as §1, §2

C[C@H]1[C@H](C)CC[C@]2(C(=O)O)CC[C@]3(C)C(=CC[C@@H]4[C@@]5(C)C[C@@H](O)[C@H](O)C(C)(C)[C@@H]5CC[C@]43C)[C@H]12 [Corosolic acid, 2α-hydroxyursolic acid]
5-LOX inhibitory activity (in words) [1]: on par with 3-O-acetyl-11-keto-β-boswellic acid (AKBA)
% inhibition of 5-Lox activity ([1]; 100 μM): 13.48%
% inhibition of 5-Lox activity ([1]; 250 μM): 29.26%
LC50 at 24 h [2]: 3 µM
SGL (mean ± SE) [3]: 121.43 ± 6.27 mg/dL
Inhibitory rate (serum glucose level inhibitory rate) [3]: 9.78

C[C@H]1[C@H](C)CC[C@]2(C(=O)O)CC[C@]3(C)C(=CC(=O)[C@@H]4[C@@]5(C)C[C@H]6OS(=O)(=O)O[C@@H]6C(C)(C)[C@@H]5CC[C@]43C)[C@H]12 [Compound 19, 2α,3β-Dihydroxyurs-12-en-11-one-28-oic acid 2,3-cyclicsulphate]
% inhibition of 5-Lox activity ([1]; 250 μM): 11.81%
LC50 [4]: > 100 µM
SGL (mean ± SE) [3]: 129.16 ± 4.66 mg/dL
Inhibitory rate (serum glucose level inhibitory rate) [3]: 11.67

CC(N)C(=O)OC1CC2(C)C(CCC3(C)C2CC=C2C4C(C)C(C)CCC4(C(=O)O)CCC23C)C(C)(C)C1O.Cl (stereo not drawn) [Compound 5, 2-O-Alanylcorosolic acid hydrochloride]
% inhibition of 5-Lox activity ([1]; 100 μM): 29.14%
% inhibition of 5-Lox activity ([1]; 250 μM): 67.03%
LC50 [4]: 3.4 µM
SGL (mean ± SE) [3]: 113.49 ± 4.11 mg/dL
Inhibitory rate (serum glucose level inhibitory rate) [3]: 22.39

COc1cc([C@@H]2c3cc4c(cc3[C@H](O)[C@H]3COC(=O)[C@H]23)OCO4)cc(OC)c1OC [podophyllotoxin, Podophyllotoxin, reference compound]
LC50 at 24 h [2]: 7.7 µM

C[C@H]1[C@H](C)CC[C@]2(C(N)=O)CC[C@]3(C)C(=CC[C@@H]4[C@@]5(C)C[C@@H](O)[C@H](O)C(C)(C)[C@@H]5CC[C@]43C)[C@H]12 [Compound 8, Corosolamide]
% inhibition of 5-Lox activity ([1]; 100 μM): 26.13%
% inhibition of 5-Lox activity ([1]; 250 μM): 51.29%
LC50 [4]: 29 µM
SGL (mean ± SE) [3]: 110.14 ± 3.18 mg/dL
Inhibitory rate (serum glucose level inhibitory rate) [3]: 18.15
